ChEMBL document CHEMBL1201862, “PubChem BioAssay data set” (2004)
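1) Cells in 96-well plates. 2) Compound, 48 h, 5 concentrations. 3) Linear interpolation between surrounding doses. 4) Unreached endpoint = highest concentration. The concentration for 50% growth inhibition is given as GI50.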 Active and inactive are the calls of the source. No stated cut-off is given here; in the data, active = GI50 up to about 1.1 µM and inactive = higher.

Experiments:
Assay in all cases: NCI tumour cell line growth inhibition, 48 h
[1] = system: OVCAR-3
[2] = system: RPMI-8226
[3] = system: MDA-MB-231
[4] = system: SK-MEL-5
[5] = system: SK-MEL-2
[6] = system: NCI-H460
[7] = system: SK-OV-3
[8] = system: EKVX
[9] = system: ACHN
[10] = system: SNB-75
[11] = system: HOP-62
[12] = system: UACC-257
[13] = system: 786-0
[14] = system: HOP-92
[15] = system: TK-10
[16] = system: NCI-H23
[17] = system: SF-295
[18] = system: Malme-3M
[19] = system: OVCAR-4

Measured: GI50

COc1ccccc1NCc1nnc(CCCCCCCCc2nnc(CNc3ccccc3OC)o2)o1
inactive: [1] > 100 µM | [2] > 100 µM | [3] > 100 µM | [4] > 100 µM | [5] > 100 µM | [6] > 100 µM | [7] > 100 µM | [8] > 100 µM | [9] > 100 µM | [10] > 100 µM | [11] > 100 µM | [12] > 100 µM | [13] > 100 µM | [14] > 100 µM | [15] > 100 µM | [16] > 100 µM | [17] > 100 µM | [18] > 100 µM | [19] > 100 µM

N=c1oc2ccccc2cc1C(=O)NC12CC3CC(CC(C3)C1)C2
inactive: [1] 12.5 µM | [2] 5.71 µM | [3] 20.1 µM | [4] 21.2 µM | [5] 14 µM | [6] 14.4 µM | [7] 7.64 µM | [8] 21.9 µM | [9] 6.89 µM | [10] 19.3 µM | [11] 22.6 µM | [12] 23 µM | [13] 2.88 µM | [14] 25.8 µM | [15] 16 µM | [16] 27.4 µM | [17] 20.6 µM | [18] 32.1 µM | [19] 19.9 µM

COC(=O)CCC(=O)NC1=C(Nc2ccccc2)C(=O)c2ccccc2C1=O
inactive: [1] 2.94 µM | [2] 13.2 µM | [3] 9.66 µM | [4] 1.83 µM | [5] 5.57 µM | [6] 15.3 µM | [7] 12.9 µM | [8] 16.6 µM | [9] 14.9 µM | [10] 18.3 µM | [11] 17.8 µM | [12] 2.84 µM | [13] 12.3 µM | [14] 15 µM | [15] 22.5 µM | [16] 4.28 µM | [17] 15.4 µM | [18] 2.55 µM | [19] 10.5 µM

N#Cc1c(Cl)cc(C#N)n2c1nc1ccccc12
inactive: [1] 5.28 µM | [2] 4.14 µM | [3] 8.87 µM | [4] 15.5 µM | [5] 17 µM | [6] 14.9 µM | [7] 21.9 µM | [8] 20.7 µM | [9] 15.2 µM | [10] 19.2 µM | [11] 21.6 µM | [12] 14.9 µM | [13] 2.59 µM | [14] 8.04 µM | [15] 13.2 µM | [16] 13.2 µM | [17] 15.3 µM | [18] 5.35 µM | [19] 13.8 µM

CC(C)(C)C(=O)OCC1CCC[N+]2(C)CCCCC12 (stereo not given)
inactive: [1] > 100 µM | [2] > 100 µM | [3] > 100 µM | [4] > 100 µM | [5] > 100 µM | [6] > 100 µM | [7] > 100 µM | [8] > 100 µM | [9] > 100 µM | [10] > 100 µM | [11] > 100 µM | [12] > 100 µM | [13] > 100 µM | [14] > 100 µM | [15] > 100 µM | [16] > 100 µM | [17] > 100 µM | [18] > 100 µM | [19] > 100 µM

C1=N\CCNCC/N=C/c2ccccc2OCc2cccc(n2)COc2ccccc2/1
inactive: [1] 23.8 µM | [2] 3.77 µM | [3] 22.2 µM | [4] 12.6 µM | [5] > 44.5 µM | [6] 33.1 µM | [7] 43.3 µM | [8] 35.5 µM | [9] 31.2 µM | [10] 9.46 µM | [11] 12.4 µM | [12] 29.2 µM | [13] 6.7 µM | [14] 26.1 µM | [15] 20.7 µM | [16] 12.9 µM | [17] 8.15 µM | [18] 11.8 µM | [19] 13.7 µM

C=C1C(=O)C[C@H]2C(=C)C(=O)O[C@@H]2C2C1CC[C@@]2(C)O (stereo not given in full)
inactive: [1] 16.1 µM | [2] 7.98 µM | [3] 25.1 µM | [4] 39.4 µM | [5] 21.5 µM | [6] 18.8 µM | [7] > 100 µM | [8] 62.8 µM | [9] 12.2 µM | [10] > 100 µM | [11] 31.3 µM | [12] 21.5 µM | [13] 19.9 µM | [14] 26.4 µM | [15] 21.1 µM | [16] 24.9 µM | [17] > 100 µM | [18] 16.3 µM | [19] > 10 µM

COC(=O)C1C(O)C(C)C(O)C(C)C=C(C)C2=C3C(=C(C)C(=O)c4c(O)c(c(C)c(OC(C)=O)c43)NC(=O)C(C)=C/C=C\C(C)C(O)C(C)C1O)OCO2 (stereo not given)
inactive: [1] 18.6 µM | [2] 18.4 µM | [3] 23.8 µM | [4] 19.9 µM | [5] 23.7 µM | [6] 67.5 µM | [7] > 100 µM | [8] 34.3 µM | [9] 27 µM | [10] 12.4 µM | [11] > 100 µM | [12] 13.4 µM | [13] 57.1 µM | [14] 14.9 µM | [15] 56.1 µM | [16] 24.9 µM | [17] 51.6 µM | [18] 16.2 µM | [19] 25.3 µM

C=C1C(=O)C=C2C=C3C(=O)C(C)(C)C[C@]3(O)C12C (stereo not given in full)
inactive: [1] 1.8 µM | [2] 1.21 µM | [3] 2.36 µM | [4] 6.62 µM | [5] 17.8 µM | [6] 18.9 µM | [7] 19.3 µM | [8] 16.1 µM | [9] 2.23 µM | [10] 14.2 µM | [11] 22.5 µM | [12] 2.93 µM | [13] 1.81 µM | [14] 1.59 µM | [15] 1.84 µM | [16] 4.81 µM | [17] 19 µM | [18] 1.83 µM | [19] 3.43 µM

COc1ccc(C(=O)c2sc(Nc3ccc(Cl)cc3)nc2N)cc1
inactive: [1] 8.85 µM | [2] 4.16 µM | [3] 26.3 µM | [4] 18.3 µM | [5] 17 µM | [6] 4.31 µM | [7] 6.35 µM | [8] 32.8 µM | [9] 25.4 µM | [10] 2.79 µM | [11] 7.91 µM | [12] 11.9 µM | [13] 7.8 µM | [14] 35.3 µM | [15] 10.1 µM | [16] 13.6 µM | [17] 11.1 µM | [18] 12.3 µM | [19] 12.6 µM
